Laboratory results as given in patent US20260285874A1, “SALT FORM AND CRYSTAL FORM OF THIENOPYRIMIDINE COMPOUND, AND PREPARATION METHOD THEREFOR AND USE THEREOF” (SHANDONG LUYE PHARMACEUTICAL CO., LTD., priority 2023, published 2026).

Legend:
human GnRHR [1] = target: T1, human GnRHR (Homo sapiens, UniProt P30968); assay: In vitro binding screening ([125I]-[D-Trp6]-LH-RH displacement, Chem-1 cell membrane); set-up: host or cells: Chem-1 cells (membrane preparation)
T1 sequence (P30968 1-328): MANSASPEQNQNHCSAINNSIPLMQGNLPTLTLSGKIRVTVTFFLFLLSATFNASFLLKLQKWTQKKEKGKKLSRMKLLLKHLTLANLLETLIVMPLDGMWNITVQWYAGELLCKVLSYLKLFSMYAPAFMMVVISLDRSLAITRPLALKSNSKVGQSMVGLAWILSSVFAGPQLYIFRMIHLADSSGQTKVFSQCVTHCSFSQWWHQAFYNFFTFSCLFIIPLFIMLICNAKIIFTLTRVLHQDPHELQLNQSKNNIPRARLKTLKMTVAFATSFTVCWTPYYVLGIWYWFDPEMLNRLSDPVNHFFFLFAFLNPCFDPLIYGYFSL
Procedure: 1 μM [D-Trp6]-LH-RH was used in the non-specific binding assay. The cell membrane was collected by filtration under vacuum and washed before liquid scintillation. The binding IC50 and IC90 of the compound were calculated using Prism.

[2] = target: T2, human hERG potassium channel (Homo sapiens, UniProt Q12809); assay: hERG test (QPatch automated patch clamp, CHO cells); type: cell-based
T2 construct: host or cells: CHO
T2 sequence (Q12809 whole entry): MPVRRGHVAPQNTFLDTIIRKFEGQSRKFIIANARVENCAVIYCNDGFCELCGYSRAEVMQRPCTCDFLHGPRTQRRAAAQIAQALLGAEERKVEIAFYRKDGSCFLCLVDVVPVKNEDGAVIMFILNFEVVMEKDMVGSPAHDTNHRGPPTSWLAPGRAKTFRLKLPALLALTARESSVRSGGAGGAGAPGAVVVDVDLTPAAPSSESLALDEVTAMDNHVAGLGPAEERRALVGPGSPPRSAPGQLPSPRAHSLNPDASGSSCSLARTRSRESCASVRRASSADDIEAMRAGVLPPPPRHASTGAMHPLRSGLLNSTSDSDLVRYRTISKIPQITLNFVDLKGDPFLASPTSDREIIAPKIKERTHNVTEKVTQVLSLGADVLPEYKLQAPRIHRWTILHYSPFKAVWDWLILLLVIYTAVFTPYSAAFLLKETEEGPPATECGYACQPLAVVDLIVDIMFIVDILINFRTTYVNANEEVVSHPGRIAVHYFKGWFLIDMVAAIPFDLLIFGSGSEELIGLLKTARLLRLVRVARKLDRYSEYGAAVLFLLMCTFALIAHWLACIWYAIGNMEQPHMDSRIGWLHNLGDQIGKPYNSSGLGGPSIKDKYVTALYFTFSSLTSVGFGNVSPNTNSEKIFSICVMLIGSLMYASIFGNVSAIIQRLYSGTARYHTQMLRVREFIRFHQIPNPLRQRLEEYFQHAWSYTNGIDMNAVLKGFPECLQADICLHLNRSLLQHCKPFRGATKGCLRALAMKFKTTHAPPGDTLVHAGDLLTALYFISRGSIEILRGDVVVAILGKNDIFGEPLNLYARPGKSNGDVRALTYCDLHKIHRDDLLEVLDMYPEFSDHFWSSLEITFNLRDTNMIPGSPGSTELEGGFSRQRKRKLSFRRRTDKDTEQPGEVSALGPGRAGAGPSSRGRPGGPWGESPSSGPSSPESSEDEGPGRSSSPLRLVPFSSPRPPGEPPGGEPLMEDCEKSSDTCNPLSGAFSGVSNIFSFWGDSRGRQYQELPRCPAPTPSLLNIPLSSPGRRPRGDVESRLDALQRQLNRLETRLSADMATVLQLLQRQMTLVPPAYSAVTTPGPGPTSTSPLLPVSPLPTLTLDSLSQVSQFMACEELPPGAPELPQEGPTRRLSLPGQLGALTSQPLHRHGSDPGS
Procedure: • Cell: CHO cells stably expressing a human hERG potassium channel (WuXi AppTec (Shanghai) Co., Ltd.) • Reagents: physiological solution (PH=7.4): 140 mM NaCl, 4 mM KCl, 2 mM CaCl2), 1 mM MgCl2, 5 mM glucose, 10 mM HEPES, osmolarity: about 298 mOsm; external solution (PH=7.4): 80 mM NaCl, 4 mM KCl, 2 mM CaCl2, 1 mM MgCl2, 5 mM glucose, 60 mM NMDG, 10 mM HEPES, osmolarity: about 289 mOsm; and internal solution (PH=7.4): 10 mM NaCl, 10 mM KCl, 110 mM KF, 10 mM HEPES, EGTA: […], osmolarity: about 280 mOsm. • Equipment: QPatch high-throughput automated patch clamp system, Sophion. • Method: CHO cells stably expressing a human hERG potassium channel were digested with TrypLE and resuspended in the physiological solution for later use. The single-cell high-impedance sealing and whole-cell mode formation processes were automatically completed by Qpatch. The cells were clamped at a voltage of −80 mV, then a voltage of −50 mV was applied for 80 ms to subtract (current) leakage, and a voltage of +20 mV was applied for 4800 ms to open the hERG channel. The voltage was then reduced to −50 mV and maintained for 5000 ms. This process was used for data collection and analysis. Finally, the voltage was returned to the clamping voltage (−80 mV, 1000 ms). This process was repeated every 20,000 ms. […]

human GnRHR [3] = target: T1, human GnRHR; assay: In vitro antagonistic activity screening (FLIPR calcium fluorescence, leuprolide acetate stimulation); type: cell-based
Procedure: • Cell: HEK293 cells stably expressing human GnRHR (WuXi AppTec (Shanghai) Co., Ltd.) • Equipment: 384-well plate, Greiner; Vi-cell XR Cell Viability Analyzer, Beckman Coulter; incubator, Thermo. • Method: HEK293 cells stably expressing human GnRHR were seeded into a 384-well plate at a density of 20,000 cells/well. Fluo-4 Direct™ No-wash Loading Buffer (Invitrogen) was added to each well the next day, and then the plate was put back into an incubator, incubated at 37° C. for 50 min, and then incubated at room temperature for 10 min. […] Fluorescence was measured using a FLIPR Tetra high-throughput real-time fluorescence assay and analysis system. Then 10 μL of Leuprolide acetate was added, and fluorescence was measured. The IC50 and IC90 of the compound were calculated using Prism.

[4] = Pituitary tissue distribution in SD rats after intragastric administration; type: in vivo; details: i.g 12 mg/kg; for Plasma concentration: in ng/mL (unit assumed)
Procedure: (§1) • Rats: SD rats, male, 200-250 g • Instruments: water purification instrument, Millipore; electronic balance, METTLER TOLEDO; high-speed benchtop centrifuge, Thermo; water bath thermostatic oscillator, Shanghai Yiheng Technical Co., Ltd.; vortex oscillator, Thermo; LC-MS/MS, AB SCIEX. • Method: Solutions of all compounds were prepared using DMSO and 20% solutol. In the pharmacokinetic experiment, the administration dose for the intravenous group (i.v) was 1 mg/kg, and the administration dose for the intragastric group (i.g) was 12 mg/kg; each group contained 3 rats. Blood was collected from the orbit of the rats before administration (0 h) and at set time points after administration. In the tissue distribution experimental group, the rats were intragastrically dosed at 12 mg/kg. […] in a heparinized EP tube and centrifuged at 13,500 rpm for 10 min to isolate the plasma. The pituitary was homogenized with water in a certain ratio. The plasma and pituitary homogenates were pre-treated and then analyzed by LC-MS/MS to determine the concentrations of the test substances in the plasma and the pituitary. The plasma drug concentration data were processed in a non-compartmental model using WinNonlin™ Version 6.3 (Pharsight, Mountain View, CA) pharmacokinetic software.

[5] = In vivo pharmacokinetics in SD rats; details: intragastric administration group
Procedure: as §1

Caco-2 cells = assay: Permeability and transporter substrate evaluation in Caco-2 monolayer; type: in vitro ADME
Procedure: • Cell: Caco-2 cells • Instruments: water purification instrument, ELGA Lab Wate; biosafety cabinet, NUAIRE; thermostatic CO2 incubator, Thermo; microplate reader, PerkinElmer; LC-MS/MS, AB SCIEX. • Method: A Caco-2 monolayer cell model was used to determine the two-way permeability of the test substance and evaluate whether the test substance was transported via efflux by a transporter. In the experiment, Caco-2 cells were seeded into a 96-well cell culture plate and cultured for 28 consecutive days before a transport assay. The test substance was administered on two sides. After 120 min of incubation, samples of apical end A, basal end B, and the cell lysate were collected, and the content of the test substance in the samples was quantitatively determined using a liquid chromatography-tandem mass spectrometry (LC/MS/MS) method. The apparent permeability coefficients (Papp) in the direction from the apical end to the basal end (A-B) and in the direction from the basal end to the apical end (B-A) and the efflux ratio were calculated based on the concentration of the test substance.

Binding ability to human GnRHR (conclusion) (human GnRHR [1]): significant binding ability | Inhibitory effect on human GnRHR (conclusion) (human GnRHR [3]): significant inhibitory effect | Pituitary concentration ([4]; 1 h): 2250 ± 474 | Plasma concentration ([4]; 1 h): 39.5 ± 14.0 | Pituitary concentration ([4]; 4 h): 1841 ± 636 | Plasma concentration ([4]; 4 h): 22.8 ± 2.5 | Pituitary concentration ([4]; 12 h): 1254 ± 494 | Plasma concentration ([4]; 12 h): 9.70 ± 3.10 | Absolute bioavailability relative to Relugolix [5]: 3.47 times | Efflux ratio (conclusion) (Caco-2 cells): relatively low efflux ratio
SMILES: CCNC(=O)Nc1ccc(-c2sc3c(c2CN(C)C)c(=O)n(-c2ccc(OC)nn2)c(=O)n3Cc2c(F)cccc2F)cn1 [Formula I]
Inhibitory activity against the human hERG potassium channel (conclusion) [2]: relatively low inhibitory activity
